Assay results reported in PubChem BioAssay AID248 (DTP/NCI, 2004).
Several values for one entry are separate records, joined by “and”; a condition that tells them apart may be missing. Equal values may be shown once. Toxic doses and inconclusive results are not listed.

Tested on: L1210 leukemia ip in BDF1 mice, survival T/C
Assay: NCI In Vivo Anticancer Drug Screen. Data for tumor model L1210 Leukemia (intraperitoneal) in B6D2F1 (BDF1) mice
Conditions: endpoint: mean survival time, higher = longer survival
How it was run: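 Each compound was tested against a transplantable tumor grown in mice. The endpoint was survival, with treated animals benchmarked against vehicle controls as a simple ratio.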

[1] = dose: 50.0 mg/kg/injection, schedule: Q01DX009 (ip), vehicle: saline with Tween-80
[2] = dose: 100.0 mg/kg/injection, schedule: Q01DX009 (ip), vehicle: saline with Tween-80
[3] = dose: 100.0 mg/kg/injection, schedule: Q04DX003 (ip), vehicle: saline with Tween-80
[4] = dose: 200.0 mg/kg/injection, schedule: Q04DX003 (ip), vehicle: saline with Tween-80
[5] = dose: 100.0 mg/kg/injection, schedule: Q01DX009 (ip), vehicle: Klucel (hydroxypropylcellulose) (HPC)
[6] = dose: 100.0 mg/kg/injection, schedule: Q04DX003 (ip), vehicle: Klucel (hydroxypropylcellulose) (HPC)
[7] = dose: 200.0 mg/kg/injection, schedule: Q01DX009 (ip), vehicle: Klucel (hydroxypropylcellulose) (HPC)
[8] = dose: 200.0 mg/kg/injection, schedule: Q04DX003 (ip), vehicle: Klucel (hydroxypropylcellulose) (HPC)
[9] = dose: 400.0 mg/kg/injection, schedule: Q01DX009 (ip), vehicle: Klucel (hydroxypropylcellulose) (HPC)
[10] = dose: 400.0 mg/kg/injection, schedule: Q04DX003 (ip), vehicle: Klucel (hydroxypropylcellulose) (HPC)
[11] = dose: 100.0 mg/kg/injection, schedule: Q01DX001 (ip), vehicle: carboxymethylcellulose (CMC)
[12] = dose: 200.0 mg/kg/injection, schedule: Q01DX001 (ip), vehicle: carboxymethylcellulose (CMC)
[13] = dose: 400.0 mg/kg/injection, schedule: Q01DX001 (ip), vehicle: carboxymethylcellulose (CMC)

## CC(=O)Nc1nc2[nH]ccc2c(=O)[nH]1
dose: 75.0 mg/kg/injection, schedule: Q01DX001 (ip), vehicle: other
  T/C: 106 % of control
dose: 150.0 mg/kg/injection, schedule: Q01DX001 (ip), vehicle: other
  T/C: 104 % of control
dose: 300.0 mg/kg/injection, schedule: Q01DX001 (ip), vehicle: other
  T/C: 103 % of control

## CCOc1ccn(CC(=O)c2ccc([N+](=O)[O-])o2)c(=O)n1
[1]
  T/C: 96 % of control
[2]
  T/C: 94 % of control
[3]
  T/C: 98 % of control
[4]
  T/C: 91 % of control

## CC(C)(C)c1cc(CO)cc(C(C)(C)C)c1O
[5]
  T/C: 108 % of control
[6]
  T/C: 91 % of control
[7]
  T/C: 100 % of control
[8]
  T/C: 92 % of control
[9]
  T/C: 96 % of control
[10]
  T/C: 105 % of control

## CCOC(=O)c1ccc(N2C(=O)C=CC2=O)cc1
[3]
  T/C: 96 % of control
[4]
  T/C: 98 % of control
dose: 400.0 mg/kg/injection, schedule: Q04DX003 (ip), vehicle: saline with Tween-80
  T/C: 89 % of control

## O=C(Nc1ccc(Cl)cc1)N1CC1
dose: 12.5 mg/kg/injection, schedule: Q04DX003 (ip), vehicle: Klucel (hydroxypropylcellulose) (HPC)
  T/C: 92 % of control
dose: 25.0 mg/kg/injection, schedule: Q04DX003 (ip), vehicle: Klucel (hydroxypropylcellulose) (HPC)
  T/C: 94 % of control
dose: 50.0 mg/kg/injection, schedule: Q04DX003 (ip), vehicle: Klucel (hydroxypropylcellulose) (HPC)
  T/C: 98 % of control

## C/C=C/C(=O)OCCC[N+](C)(C)C
dose: 0.78 mg/kg/injection, schedule: Q01DX009 (ip), vehicle: saline
  T/C: 95 % of control
dose: 1.56 mg/kg/injection, schedule: Q01DX009 (ip), vehicle: saline
  T/C: 97 % of control
dose: 3.12 mg/kg/injection, schedule: Q01DX009 (ip), vehicle: saline
  T/C: 100 % of control
dose: 6.25 mg/kg/injection, schedule: Q04DX003 (ip), vehicle: saline
  T/C: 111 % of control
dose: 12.5 mg/kg/injection, schedule: Q04DX003 (ip), vehicle: saline
  T/C: 88 % of control
dose: 25.0 mg/kg/injection, schedule: Q04DX003 (ip), vehicle: saline
  T/C: 103 % of control

## O=[N+]([O-])/C=C\c1cc2ccccc2c2ccccc12
[11]
  T/C: 94 % of control
[12]
  T/C: 94 % of control
[13]
  T/C: 94 % of control

## CCOC(=O)Nc1ccc(Cl)c(Cl)c1
[5]
  T/C: 98 % of control
[7]
  T/C: 101 % of control
[9]
  T/C: 108 % of control

## CCOC(=O)C[P+](c1ccc(C)cc1)(c1ccc(C)cc1)c1ccc(C)cc1
dose: 15.0 mg/kg/injection, schedule: Q01DX001 (ip), vehicle: carboxymethylcellulose (CMC)
  T/C: 86 % of control

## COc1ccc(/C=C2\N=C(c3ccc([N+](=O)[O-])cc3)OC2=O)cc1OC
[5]
  T/C: 91 % of control
[7]
  T/C: 93 % of control
[9]
  T/C: 101 % of control

## NC(=O)c1cc(NCCO)c([N+](=O)[O-])cc1[N+](=O)[O-]
dose: 100.0 mg/kg/injection, schedule: Q01DX001 (ip), vehicle: Klucel (hydroxypropylcellulose) (HPC)
  T/C: 104 % of control
dose: 200.0 mg/kg/injection, schedule: Q01DX001 (ip), vehicle: Klucel (hydroxypropylcellulose) (HPC)
  T/C: 100 % of control
dose: 400.0 mg/kg/injection, schedule: Q01DX001 (ip), vehicle: Klucel (hydroxypropylcellulose) (HPC)
  T/C: 96 % of control

## CC(=O)OC1CC2CCC1(C)C2(C)C (centres undefined)
[1]
  T/C: 100 % of control
dose: 50.0 mg/kg/injection, schedule: Q01DX009 (ip), vehicle: saline
  T/C: 96 % of control
[2]
  T/C: 96 % of control
dose: 100.0 mg/kg/injection, schedule: Q01DX009 (ip), vehicle: saline
  T/C: 98 % of control
dose: 100.0 mg/kg/injection, schedule: Q04DX003 (ip), vehicle: saline
  T/C: 87 % of control
dose: 200.0 mg/kg/injection, schedule: Q01DX009 (ip), vehicle: saline with Tween-80
  T/C: 96 % of control
dose: 200.0 mg/kg/injection, schedule: Q01DX009 (ip), vehicle: saline
  T/C: 89 % of control
dose: 200.0 mg/kg/injection, schedule: Q04DX003 (ip), vehicle: saline
  T/C: 90 % of control

## O=C(Nc1ccc(S(=O)(=O)NC2CCCCC2)cc1)OC1CCCC1
[11]
  T/C: 95 % of control
[12]
  T/C: 94 % of control
[13]
  T/C: 97 % of control

## Cc1cc(C)c(-c2cc(O)c(C)cc2O)c(C)c1
dose: 25.0 mg/kg/injection, schedule: Q01DX009 (ip), vehicle: other
  T/C: 103 % of control
dose: 50.0 mg/kg/injection, schedule: Q01DX009 (ip), vehicle: other
  T/C: 99 % of control
dose: 100.0 mg/kg/injection, schedule: Q01DX009 (ip), vehicle: other
  T/C: 101 % of control
dose: 200.0 mg/kg/injection, schedule: Q01DX009 (ip), vehicle: other
  T/C: 97 % of control
dose: 400.0 mg/kg/injection, schedule: Q01DX009 (ip), vehicle: other
  T/C: 100 % of control

## COc1cc(C=Nc2cc(Cl)cc(Cl)c2)ccc1N(CCCl)CCCl
dose: 10.5 mg/kg/injection, schedule: Q01DX015 (ip), vehicle: carboxymethylcellulose (CMC)
  T/C: 114 % of control and 116 % of control
dose: 18.0 mg/kg/injection, schedule: Q01DX015 (ip), vehicle: carboxymethylcellulose (CMC)
  T/C: 113 % of control and 117 % of control
dose: 30.0 mg/kg/injection, schedule: Q01DX015 (ip), vehicle: carboxymethylcellulose (CMC)
  T/C: 123 % of control
dose: 50.0 mg/kg/injection, schedule: Q01DX001 (ip), vehicle: carboxymethylcellulose (CMC)
  T/C: 123 % of control
dose: 50.0 mg/kg/injection, schedule: Q01DX001 (ip), vehicle: other
  T/C: 105 % of control
dose: 50.0 mg/kg/injection, schedule: Q01DX015 (ip), vehicle: carboxymethylcellulose (CMC)
  T/C: 122 % of control
[11]
  T/C: 157 % of control
dose: 100.0 mg/kg/injection, schedule: Q01DX001 (ip), vehicle: other
  T/C: 118 % of control
dose: 150.0 mg/kg/injection, schedule: Q01DX001 (ip), vehicle: carboxymethylcellulose (CMC)
  T/C: 116 % of control
[12]
  T/C: 123 % of control
dose: 200.0 mg/kg/injection, schedule: Q01DX001 (ip), vehicle: other
  T/C: 123 % of control
dose: 400.0 mg/kg/injection, schedule: Q01DX001 (ip), vehicle: other
  T/C: 111 % of control
dose: 800.0 mg/kg/injection, schedule: Q01DX001 (ip), vehicle: other
  T/C: 120 % of control

## Cn1c(=O)c2ccccc2n(C)c1=O
[6]
  T/C: 96 % of control
[8]
  T/C: 102 % of control
[10]
  T/C: 100 % of control

## COC1(c2ccco2)OC1(C)C (centres undefined)
dose: 5.0 mg/kg/injection, schedule: Q01DX009 (ip), vehicle: saline with Tween-80
  T/C: 94 % of control
dose: 5.0 mg/kg/injection, schedule: Q04DX003 (ip), vehicle: saline with Tween-80
  T/C: 96 % of control
dose: 10.0 mg/kg/injection, schedule: Q01DX009 (ip), vehicle: saline with Tween-80
  T/C: 97 % of control
dose: 10.0 mg/kg/injection, schedule: Q04DX003 (ip), vehicle: saline with Tween-80
  T/C: 102 % of control
dose: 20.0 mg/kg/injection, schedule: Q01DX009 (ip), vehicle: saline with Tween-80
  T/C: 116 % of control
dose: 20.0 mg/kg/injection, schedule: Q04DX003 (ip), vehicle: saline with Tween-80
  T/C: 98 % of control

## CCOC(=O)/C(=C\c1ccc(N(C)C)cc1)c1nc2ccccc2[nH]1
dose: 100.0 mg/kg/injection, schedule: Q04DX002 (ip), vehicle: saline with Tween-80
  T/C: 92 % of control
dose: 200.0 mg/kg/injection, schedule: Q04DX002 (ip), vehicle: saline with Tween-80
  T/C: 92 % of control
dose: 400.0 mg/kg/injection, schedule: Q04DX002 (ip), vehicle: saline with Tween-80
  T/C: 104 % of control
